Assay results taken from patent publication US9969709B2, “Guanidinobenzoic acid ester compound” (Takeda Pharmaceutical Company Limited, priority 2013, dated 2018).
Where a name gives a salt, the structure may show the parent alone.

Experiments:
[1] = system: T1, mouse trypsin (m-trypsin); assay: Trypsin inhibitory activity, mouse trypsin purified from small intestine contents, BZiPAR fluorescent substrate; type: biochemical; details: 30 min at room temperature
T1 construct: mouse trypsin (m-trypsin)
Text: 1. Confirmation of Trypsin Inhibitory Activity in Humans and Mice
In the experiment, human recombinant trypsin (rh-trypsin; manufactured by Wako Pure Chemical Industries, Ltd.), cat. #206-17171) and mouse trypsin (m-trypsin; purified from the mouse small intestine contents by the present inventors) were used. The method for purifying m-trypsin from the contents of the mouse small intestine is shown below.
The small intestine contents and the gastrointestinal tract obtained from 10 mice were homogenized in phosphate buffer saline (PBS) using Polytron, and subjected to centrifugation several times at 15,000×g for 10 minutes. The supernatant was mixed at 4° C. for 16 hours with a Benzamidine Sepharose 4 Fast Flow Resin (GE Healthcare: #17-5123-10). After washing the resin with PBS, m-trypsin was eluted with a glycine buffer (pH 3.0) to carry out purification. It was confirmed by Western blot analysis that the obtained purified fraction was recognized as an Anti-mouse Trypsin Antibody (Santa Cruz Biotechnology, Inc.: sc-67388). The method for measuring the trypsin inhibiting activity is shown below.
(§1) The compound was dissolved in dimethyl sulfoxide (DMSO), and diluted to an arbitrary concentration (A). A was 100-fold diluted with a buffer (0.1 M Tris (pH 8.0), 0.15 M NaCl, 10 mM CaCl2, 0.05% Brij35) (B). The rh-trypsin was diluted with a buffer to 0.088 μg/mL, and for the m-trypsin, the purified fraction liquid was 50-fold diluted with the buffer (C). […] A BZiPAR solution (Rhodamine Reference Substrate) which is substrate for the trypsin enzyme was diluted with the buffer to […] (D). 5 μL of B, 5 μL of C, and 10 μL of D were added to a 384-well plate, and incubated at room temperature for 30 minutes. Fluorescent signals were detected at a maximum excitement (Ex)/fluorescent wavelength (Em)=497 nm/520 nm using a Tecan Safire Fluorometer. […] Based on the obtained inhibitory rates, the trypsin inhibitory activities (IC50 values, nM) were calculated from the non-linear regression.

[2] = system: ICR mice; assay: Test of increase in fecal protein concentration using mice; type: in vivo, mouse; details: Mus musculus, po, 9 h, 5 mg/kg oral, male ICR mice, feces collected 3 to 9 hours after feeding started, control group = 1; read-out: Fecal protein, Folds (vs. control)
Description: 2. Test of Increase in Fecal Protein Concentration Using Mice
For the experiment, 6-week old male ICR mice were used. The experiment was carried out in five mice per group. After fasting the mice for 15 hours, the control group was forcibly orally administered with a 0.5% methyl cellulose (MC) solution, and the test drug group was forcibly orally administered (5 mg/kg) with a solution or suspension obtained by dissolving or suspending the compound in the 0.5% MC solution. The fasting was stopped immediately thereafter, free feeding (CE-2) was started, and then the feces were collected from after 3 hours to after 9 hours, and weighed. All of the obtained feces were suspended in 6 mL of distilled water, and centrifuged at 1,940×g for 10 minutes. The protein concentration in the obtained supernatant was measured by a Bradford method, and the amount of the protein in 1 g of feces was calculated by dividing the protein concentration in the feces by the total weight of feces. Further, the efficacy was investigated from the ratio to the control group. For the compounds that were evaluated multiple times, the average values were calculated.
The results of the activities with an increase in Fecal Protein, assuming a value for the control group as 1, are shown in Table 2.

[3] = molecular target: T2, human recombinant trypsin (rh-trypsin) (Homo sapiens, UniProt P07477); assay: Trypsin inhibitory activity, human recombinant trypsin, BZiPAR fluorescent substrate; type: biochemical; details: 30 min at room temperature, read-out: r-h Trypsin inhibitory activity (IC50)
T2 construct: purchased Wako Pure Chemical Industries, Ltd. 206-17171
Description: as §1, with “1. Confirmation of Trypsin Inhibitory Activity in Humans and Mice In the experiment, human recombinant trypsin (rh-trypsin; manufactured by Wako Pure Chemical Industries, Ltd.), cat. #206-17171) and mouse trypsin (m-trypsin; purified from the mouse small intestine contents by the present inventors) were used. The method for purifying m-trypsin from the contents of the mouse small intestine is shown below. The compound” for “The compound”

Row | IC50 [1] | IC50 [3] | Compound | response vs control in vivo at 5 mg/kg [2]
1 | 0.6 nM | 0.39 nM | C[C@H](C(=O)O)N(Cc1csc(C(=O)O)c1)C(=O)CC1CCCc2cc(OC(=O)c3ccc(NC(=N)N)cc3)ccc21 (stereo partly shown) [Example 19] | 251%
2 | 0.42 nM | 0.37 nM | N=C(N)Nc1ccc(C(=O)Oc2ccc3c(c2)CCC(C(=O)N[C@@H](Cc2ccc(C(=O)O)cc2)C(=O)O)C3)cc1 (stereo partly shown) [Example 35] | 159%
3 | 0.24 nM | 0.23 nM | N=C(N)Nc1ccc(C(=O)Oc2ccc3c(c2)CCC(C(=O)N(CC(=O)O)Cc2ccc4sc(C(=O)O)cc4c2)C3)cc1 (stereo not shown) [Example 24] | 151%
4 | 0.31 nM | 0.33 nM | N=C(N)Nc1ccc(C(=O)Oc2ccc3c(C(=O)N(CC(=O)O)Cc4cccc(C(=O)O)c4)csc3c2)cc1 [Example 60] | 226%
5 | 0.23 nM | 0.26 nM | C[C@H](C(=O)O)N(Cc1csc(C(=O)O)c1)C(=O)c1csc2cc(OC(=O)c3ccc(NC(=N)N)cc3)ccc12 [Example 29] | 143%
6 | 0.36 nM | 0.25 nM | N=C(N)Nc1ccc(C(=O)Oc2ccc3c(C(=O)N(CC(=O)O)Cc4csc(C(=O)O)c4)csc3c2)cc1 [Example 13] | 273%
7 | 0.44 nM | 0.36 nM | C[C@H](C(=O)O)N(Cc1csc(C(=O)O)c1)C(=O)CC1CCc2cc(OC(=O)c3ccc(NC(=N)N)cc3)ccc21 (stereo partly shown) [Example 48] | 179%
8 | 0.46 nM | 0.29 nM | N=C(N)Nc1ccc(C(=O)Oc2ccc3c(C(=O)N(CCC(=O)O)Cc4csc(C(=O)O)c4)csc3c2)cc1 [Example 54] | 170%
9 | 0.29 nM | 0.26 nM | N=C(N)Nc1ccc(C(=O)Oc2ccc3c(C(=O)N[C@@H](Cc4ccc(C(=O)O)cc4)C(=O)O)csc3c2)cc1 [Example 47] | 191%
10 | 0.22 nM | 0.23 nM | N=C(N)Nc1ccc(C(=O)Oc2ccc3c(c2)CCC(C(=O)N(CC(=O)O)[C@@H](Cc2ccccc2)C(=O)O)C3)cc1 (stereo partly shown) [Example 31] | 151%
11 | 0.61 nM | 0.43 nM | N=C(N)Nc1ccc(C(=O)Oc2ccc3c(c2)CCC(C(=O)N(CC(=O)O)Cc2csc(C(=O)O)c2)C3)cc1 (stereo not shown) [Example 4, 4-{[({6-[(4-carbamimidamidobenzoyl)oxy]-1,2,3,4-tetrahydronaphthalen-2-yl}carbonyl)(carboxymethyl)amino]methyl}thiophene-2-carboxylic acid monohydrochloride] | 262%
12 | 0.24 nM | 0.14 nM | N=C(N)Nc1ccc(C(=O)Oc2ccc3cc(C(=O)N(CC(=O)O)Cc4ccc(CC(=O)O)cc4)ccc3c2)cc1 [Example 16] | 239%
13 | 0.68 nM | 0.31 nM | N=C(N)Nc1ccc(C(=O)Oc2ccc3c(c2)CCC3CC(=O)N(CC(=O)O)Cc2cccc(C(=O)O)c2)cc1 (stereo not shown) [Example 11] | 263%
14 | 0.46 nM | 0.46 nM | N=C(N)Nc1ccc(C(=O)Oc2ccc3c(C(=O)N(CC(=O)O)Cc4ccc(CC(=O)O)cc4)csc3c2)cc1 [Example 23] | 253%
15 | 0.54 nM | 0.36 nM | N=C(N)Nc1ccc(C(=O)Oc2ccc3c(c2)CCC(C(=O)N(CCC(=O)O)Cc2csc(C(=O)O)c2)C3)cc1 (stereo not shown) [Example 45] | 138%
16 | 0.23 nM | 0.25 nM | N=C(N)Nc1ccc(C(=O)Oc2ccc3c(c2)CCC3CC(=O)N(CC(=O)O)[C@@H](Cc2ccccc2)C(=O)O)cc1 (stereo partly shown) [Example 46] | 184%
17 | 1.4 nM | 1.2 nM | N=C(N)Nc1ccc(C(=O)Oc2ccc3c(c2)OCC3CC(=O)N(CC(=O)O)Cc2cccc(C(=O)O)c2)cc1 (stereo not shown) [Example 10] | 
18 | 0.4 nM | 0.38 nM | N=C(N)Nc1ccc(C(=O)Oc2ccc3c(c2)CCCC3CC(=O)N(CCc2ccc(C(=O)O)cc2)CC(=O)O)cc1 (stereo not shown) [Example 28] | 154%
19 | 0.27 nM | 0.19 nM | N=C(N)Nc1ccc(C(=O)Oc2ccc3c(c2)CCCC3CC(=O)N(CC(=O)O)Cc2cccc(C(=O)O)c2)cc1 (single isomer, unassigned) [Example 5, 3-{[({(1R)-6-[(4-carbamimidamidobenzoyl)oxy]-1,2,3,4-tetrahydronaphthalen-1-yl}acetyl)(carboxymethyl)amino]methyl}benzoic acid or an enantiomer thereof] | 188%
20 | 0.44 nM | 0.34 nM | N=C(N)Nc1ccc(C(=O)Oc2ccc3c(c2)CCCC3CC(=O)N(CC(=O)O)[C@@H](Cc2ccccc2)C(=O)O)cc1 (stereo partly shown) [Example 22] | 215%
21 | 0.38 nM | 0.19 nM | N=C(N)Nc1ccc(C(=O)Oc2ccc3c(C(=O)N(CC(=O)O)Cc4csc(C(=O)O)c4)cccc3c2)cc1 [Example 57] | 225%
22 | 1.7 nM | 1.5 nM | N=C(N)Nc1ccc(C(=O)Oc2ccc3c(CC(=O)N(CC(=O)O)Cc4cccc(C(=O)O)c4)coc3c2)cc1 [Example 12] | 
23 | 0.55 nM | 0.43 nM | N=C(N)Nc1ccc(C(=O)Oc2ccc3c(c2)CCC3CC(=O)N(CC(=O)O)Cc2ccc(CC(=O)O)cc2)cc1 (stereo not shown) [Example 52] | 178%
24 | 0.52 nM | 0.38 nM | C[C@H](C(=O)O)N(Cc1csc(C(=O)O)c1)C(=O)C1CCc2cc(OC(=O)c3ccc(NC(=N)N)cc3)ccc2C1 (stereo partly shown) [Example 21] | 251%
25 | 0.77 nM | 0.47 nM | N=C(N)Nc1ccc(C(=O)Oc2ccc3c(c2)CCC(C(=O)N(CC(=O)O)Cc2ccc(CC(=O)O)cc2)C3)cc1 (stereo not shown) [Example 20] | 223%
26 | 0.45 nM | 0.37 nM | N=C(N)Nc1ccc(C(=O)Oc2ccc3c(c2)CCC3CC(=O)N(CC(=O)O)Cc2csc(C(=O)O)c2)cc1 (stereo not shown) [Example 49] | 207%
27 | 0.26 nM | 0.23 nM | N=C(N)Nc1ccc(C(=O)Oc2ccc3cc(C(=O)N(CC(=O)O)Cc4cccc(C(=O)O)c4)ccc3c2)cc1 [Example 14] | 179%
28 | 0.22 nM | 0.26 nM | N=C(N)Nc1ccc(C(=O)Oc2ccc3c(c2)CCCC3CC(=O)N(CC(=O)O)Cc2cccc(CC(=O)O)c2)cc1 (stereo not shown) [Example 41] | 201%
